Results on 4 compounds are retold here after US20080269223A1, “Mouth Dissolvable and Meltable, and Water Dispersable Delivery Formulation” (priority 2004, published 2008).

Read-outs that look alike come from different tables or passages of the source.

The conditions of data set [1]: cited from earlier work.
Data set [2] has as its system human plasma protein. Particulars: cited from earlier work.
Data set [3] is described as follows: Dissolution time of mannitol forms in water. It is filed as physicochemical. To be noted: ratio 1:30 w/w with respect to water, 20° C. How it is done: The filler is mannitol, preferably a form of spray dried mannitol. […] Accordingly, α form of spray dried mannitol is most preferred in accordance to the present invention. The α-form of mannitol has mean particle size diameter of about 150 micron and Haussner number of about 1.16, having dissolution time in water with a ratio of 1:30 with respect to water in w/w, not more than 5 seconds at 20° C. […] When the dissolution time of the α-form of spray dried mannitol is compared with the standard and granulated mannitol, it gave following gradation:—

`Nc1nnc(-c2cccc(Cl)c2Cl)c(N)n1` [Lamotrigine, 3,5-diamino-b-[2,3-dichlorophenyl]-1,2,4-triazine]: the average half life result in data set [1] (Lamotrigine alone) is given as “approximately 24 hours”. The “effect of food on bioavailability” value in data set [1] (in vivo) is “not affected by food”. Besides, the half life entry in data set [1] (used concurrently with phenytoin) was “approximately 7.2 hours”; in data set [1] (with Valproic Acid), “approximately 59 hours”. For the same compound, in data set [2] (carbamazepine, phenytoin, phenobarbitol), the “displacement of other anti-epileptic drugs from protein binding sites” value is recorded as “does not displace”. The “bound to human plasma protein” value in data set [2] is on record as “approximately 55%”.
Take `OCC(O)C(O)C(O)C(O)CO` (stereo not drawn) [Spray dried α-mannitol, 1,2,3,4,5,6-hexanehexol]: the results for the “dissolution time in water” value in data set [3] and in data set [3] (listed as α-form of mannitol) were 5 s and “not more than 5 seconds”, respectively.
On to `OC[C@@H](O)[C@@H](O)[C@H](O)[C@H](O)CO` [granulated mannitol], for which the “dissolution time in water” value in data set [3] is 100 s.
For `OC[C@@H](O)[C@@H](O)[C@H](O)[C@H](O)CO` [standard mannitol], in data set [3], the “dissolution time in water” value worked out at 35 s.
